Active and inactive are the calls of the source.
Experiments:
Protein skinhead-1 = target: T1, Protein skinhead-1 (Caenorhabditis elegans, UniProt P34707); type: functional
T1 sequence (P34707 whole entry): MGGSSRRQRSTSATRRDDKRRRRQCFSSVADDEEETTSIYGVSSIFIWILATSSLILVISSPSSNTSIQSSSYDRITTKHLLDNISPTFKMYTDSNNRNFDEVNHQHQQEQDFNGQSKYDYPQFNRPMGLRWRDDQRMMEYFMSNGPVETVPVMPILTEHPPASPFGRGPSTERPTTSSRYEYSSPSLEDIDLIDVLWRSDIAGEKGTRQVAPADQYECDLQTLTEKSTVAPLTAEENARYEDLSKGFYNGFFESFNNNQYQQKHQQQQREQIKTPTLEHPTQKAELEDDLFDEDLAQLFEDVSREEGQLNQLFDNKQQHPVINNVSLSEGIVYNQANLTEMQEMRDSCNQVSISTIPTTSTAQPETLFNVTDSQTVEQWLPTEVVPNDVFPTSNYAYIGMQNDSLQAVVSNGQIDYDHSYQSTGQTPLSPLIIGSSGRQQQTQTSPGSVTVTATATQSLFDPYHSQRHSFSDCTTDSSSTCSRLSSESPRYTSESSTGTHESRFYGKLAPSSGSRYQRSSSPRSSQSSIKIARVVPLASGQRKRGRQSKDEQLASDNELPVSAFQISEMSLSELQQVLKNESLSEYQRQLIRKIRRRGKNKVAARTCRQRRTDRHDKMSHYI

[1] = viability of uninfected HEp-2 cells – cell-based, HTS, cytotoxicity control for RSV inhibitor project, dose response (AID 2410); type: functional; conditions: human respiratory syncytial virus
[2] = target: T2, Ubiquitin-conjugating enzyme E2 N (Homo sapiens, UniProt P61088); type: functional;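 note: Dose-response confirmation in a TR-FRET assay detecting UBC13-driven polyubiquitin chain formation, inhibition measured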
T2 sequence (P61088 whole entry): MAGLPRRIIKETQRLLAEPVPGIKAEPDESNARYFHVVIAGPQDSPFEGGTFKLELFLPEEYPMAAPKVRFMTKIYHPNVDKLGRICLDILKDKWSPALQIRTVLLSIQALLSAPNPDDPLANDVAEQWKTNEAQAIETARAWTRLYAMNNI

Vero [3] = assay: cells; type: functional; conditions: Chlorocebus sabaeus
[4] = test system: Streptococcus sp. 'group A'; assay: Streptococcus pyogenes SK(-)GAS viability under kanamycin – luminescence, BacTiterGlo, confirmation, counter-screen for streptokinase expression inhibitor project, dose response (AID 1900); type: functional, organism-based
[5] = Luminescence Cell-Based Dose Response HTS to Identify Activators of Luciferase Translation or Activity in H4 […] Cells. [Related pubchem assays: 1829 (Project Summary), 1814 (Primary HTS)]; type: functional
Vero [6] = assay: cells; type: functional, cell-based; conditions: Chlorocebus sabaeus
Streptococcus = assay: GAS UMAA2166 growth inhibition – luminescence, BacTiterGlo, counter-screen for streptokinase expression inhibitor project, dose response (AID 1915); type: functional, organism-based;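 note: potency for reduction of bacterial viability or growth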
H4 = assay: Luminescence Cell-Based Dose Response HTS to Identify Activators of 5'UTR Stem-Loop Driven Prion Protein mRNA Translation in H4 Neuroglioblastoma Cells. [Related pubchem assays: 1829 (Project Summary), 1814 (Primary HTS)]; type: functional; conditions: Homo sapiens
[7] = Luminescence Cell-Based Dose Confirmation HTS to Identify Activators of 5'UTR Stem-Loop Driven Alpha-Synuclein mRNA Translation in H4 Neuroglioblastoma Cells. [Related pubchem assays: 1829 (Project Summary), 1814 (Primary HTS)]; type: functional
Streptokinase A = target: T3, Streptokinase A (Streptococcus pyogenes serotype M1, UniProt P10520); assay: viability-normalized secreted streptokinase activity reduction – plasminogen activation absorbance, OD405, dose response (AID 1914); type: functional, Streptococcus pyogenes M1 GAS;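 note: secreted streptokinase activity via plasminogen activation per viability signal from cell pellet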
T3 sequence (P10520 whole entry): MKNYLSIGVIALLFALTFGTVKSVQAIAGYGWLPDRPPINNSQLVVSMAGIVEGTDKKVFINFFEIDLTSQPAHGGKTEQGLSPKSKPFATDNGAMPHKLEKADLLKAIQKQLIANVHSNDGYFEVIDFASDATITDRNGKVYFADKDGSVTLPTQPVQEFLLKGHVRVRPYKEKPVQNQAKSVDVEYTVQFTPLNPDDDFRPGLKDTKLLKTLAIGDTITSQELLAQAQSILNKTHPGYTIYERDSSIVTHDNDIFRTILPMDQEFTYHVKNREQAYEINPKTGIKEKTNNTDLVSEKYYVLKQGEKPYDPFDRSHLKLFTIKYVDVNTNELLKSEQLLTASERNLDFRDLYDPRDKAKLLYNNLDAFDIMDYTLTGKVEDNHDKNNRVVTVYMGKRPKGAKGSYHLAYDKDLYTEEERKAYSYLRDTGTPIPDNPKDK

Leucine aminopeptidase = target: T4, Leucine aminopeptidase (Plasmodium falciparum 3D7, UniProt Q8IL11); assay: P. falciparum M17LAP inhibitors, primary screen, biochemical, fluorogenic H-Leu-NHMec substrate, 1536-well (AID 1619); type: functional
T4 sequence (Q8IL11 whole entry): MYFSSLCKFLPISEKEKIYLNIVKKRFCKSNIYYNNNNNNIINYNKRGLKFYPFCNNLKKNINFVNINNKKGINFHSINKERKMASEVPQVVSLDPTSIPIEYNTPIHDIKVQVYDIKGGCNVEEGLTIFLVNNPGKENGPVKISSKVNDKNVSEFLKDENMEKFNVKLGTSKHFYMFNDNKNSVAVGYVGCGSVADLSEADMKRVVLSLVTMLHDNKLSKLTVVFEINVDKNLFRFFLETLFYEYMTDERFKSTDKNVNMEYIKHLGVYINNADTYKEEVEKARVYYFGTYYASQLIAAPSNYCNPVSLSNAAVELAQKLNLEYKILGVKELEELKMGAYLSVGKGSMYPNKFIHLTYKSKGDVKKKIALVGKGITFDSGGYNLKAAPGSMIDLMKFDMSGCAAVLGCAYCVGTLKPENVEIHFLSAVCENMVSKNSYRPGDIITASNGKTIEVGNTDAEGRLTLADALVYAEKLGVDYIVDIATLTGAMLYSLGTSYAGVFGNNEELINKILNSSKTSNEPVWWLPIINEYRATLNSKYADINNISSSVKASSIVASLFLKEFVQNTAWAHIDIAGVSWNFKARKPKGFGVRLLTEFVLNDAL

Large T antigen = Large T antigen (Simian virus 40, UniProt P03070); type: functional, Betapolyomavirus macacae;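 note: Confirmatory-stage PubChem screen for compounds that inhibit SV40 T antigen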
[8] = microbe, parasite or virus in culture; type: functional; conditions: Mycobacterium tuberculosis
[9] = target: Induced myeloid leukemia cell differentiation protein Mcl-1 (Homo sapiens, UniProt Q07820); type: functional
[10] = target: T5, Corticotropin-releasing factor receptor 2/Corticotropin-releasing factor-binding protein (Homo sapiens, UniProt P24387+Q13324); assay: Dose Response confirmation of uHTS hits for small molecule antagonists of the CRF-binding protein and CRF-R2 receptor complex.; type: functional; conditions: read-out: IC50_Mean
T5 sequence (Q13324 whole entry): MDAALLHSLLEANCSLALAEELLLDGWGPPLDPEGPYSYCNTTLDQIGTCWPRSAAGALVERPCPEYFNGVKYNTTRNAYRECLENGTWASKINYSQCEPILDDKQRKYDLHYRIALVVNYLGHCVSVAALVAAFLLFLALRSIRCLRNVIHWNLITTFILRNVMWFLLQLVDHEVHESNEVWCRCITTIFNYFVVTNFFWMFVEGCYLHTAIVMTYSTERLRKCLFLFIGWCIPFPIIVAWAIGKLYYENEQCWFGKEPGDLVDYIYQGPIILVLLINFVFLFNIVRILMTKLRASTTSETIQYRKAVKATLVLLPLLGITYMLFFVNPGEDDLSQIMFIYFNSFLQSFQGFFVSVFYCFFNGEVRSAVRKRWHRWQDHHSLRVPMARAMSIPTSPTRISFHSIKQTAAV
T5 sequence (P24387 whole entry): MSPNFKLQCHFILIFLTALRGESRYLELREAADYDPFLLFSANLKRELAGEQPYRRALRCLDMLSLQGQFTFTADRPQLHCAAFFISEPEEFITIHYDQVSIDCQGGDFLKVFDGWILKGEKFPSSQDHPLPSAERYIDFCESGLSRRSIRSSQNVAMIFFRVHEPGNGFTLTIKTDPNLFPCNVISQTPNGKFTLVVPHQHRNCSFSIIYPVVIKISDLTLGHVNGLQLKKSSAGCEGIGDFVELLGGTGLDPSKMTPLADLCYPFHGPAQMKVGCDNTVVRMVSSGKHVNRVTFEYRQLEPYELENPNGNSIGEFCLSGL

[11] = target: T5, Corticotropin-releasing factor receptor 2/Corticotropin-releasing factor-binding protein; assay: activators of CRF receptor 2 with binding protein – uHTS hits, confirmation (AID 602473); type: functional; conditions: read-out: EC50_Mean
Genome polyprotein = Genome polyprotein (dengue virus type 2, UniProt P29990); assay: flavivirus cap methylation enzyme inhibition – biochemical, confirmation dose response, primary screen (AID 588689); type: functional
[12] = P. falciparum Dd2 growth inhibitors, dose response, SYBR Green, cherry-picked samples (AID 1159567); type: functional, cell-based

Chain of Induced myeloid leukemia cell differentiation protein Mcl-1 (Q07820 whole entry): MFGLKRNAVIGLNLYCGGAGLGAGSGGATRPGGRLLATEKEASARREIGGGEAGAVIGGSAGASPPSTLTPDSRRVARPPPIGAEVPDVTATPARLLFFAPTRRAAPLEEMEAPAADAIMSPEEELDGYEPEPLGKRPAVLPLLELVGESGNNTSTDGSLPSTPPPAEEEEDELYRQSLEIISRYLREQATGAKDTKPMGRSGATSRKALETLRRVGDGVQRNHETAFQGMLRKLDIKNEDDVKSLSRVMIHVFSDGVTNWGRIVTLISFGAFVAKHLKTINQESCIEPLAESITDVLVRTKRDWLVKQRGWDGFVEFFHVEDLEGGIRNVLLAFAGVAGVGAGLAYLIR
Chain of Large T antigen (P03070 whole entry): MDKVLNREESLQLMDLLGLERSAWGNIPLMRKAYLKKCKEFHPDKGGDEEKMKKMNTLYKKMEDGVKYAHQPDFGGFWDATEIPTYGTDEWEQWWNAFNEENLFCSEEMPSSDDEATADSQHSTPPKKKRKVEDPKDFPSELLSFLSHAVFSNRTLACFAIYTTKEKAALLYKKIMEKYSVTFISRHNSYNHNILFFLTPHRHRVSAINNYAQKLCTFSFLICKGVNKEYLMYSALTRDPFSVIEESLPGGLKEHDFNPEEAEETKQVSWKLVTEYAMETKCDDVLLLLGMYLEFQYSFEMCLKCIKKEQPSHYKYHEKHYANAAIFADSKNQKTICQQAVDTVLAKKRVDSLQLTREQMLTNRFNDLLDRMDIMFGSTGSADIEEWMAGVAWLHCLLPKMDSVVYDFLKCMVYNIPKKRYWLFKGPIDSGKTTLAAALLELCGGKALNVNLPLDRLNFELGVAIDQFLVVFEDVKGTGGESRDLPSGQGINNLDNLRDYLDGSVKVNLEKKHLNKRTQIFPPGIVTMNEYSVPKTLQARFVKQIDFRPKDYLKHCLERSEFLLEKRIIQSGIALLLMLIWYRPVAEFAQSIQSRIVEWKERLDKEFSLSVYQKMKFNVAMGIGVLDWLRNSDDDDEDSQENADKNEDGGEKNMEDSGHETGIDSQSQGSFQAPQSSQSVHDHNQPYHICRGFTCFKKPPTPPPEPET
Chain of Genome polyprotein (P29990 2492-3391 limits assumed): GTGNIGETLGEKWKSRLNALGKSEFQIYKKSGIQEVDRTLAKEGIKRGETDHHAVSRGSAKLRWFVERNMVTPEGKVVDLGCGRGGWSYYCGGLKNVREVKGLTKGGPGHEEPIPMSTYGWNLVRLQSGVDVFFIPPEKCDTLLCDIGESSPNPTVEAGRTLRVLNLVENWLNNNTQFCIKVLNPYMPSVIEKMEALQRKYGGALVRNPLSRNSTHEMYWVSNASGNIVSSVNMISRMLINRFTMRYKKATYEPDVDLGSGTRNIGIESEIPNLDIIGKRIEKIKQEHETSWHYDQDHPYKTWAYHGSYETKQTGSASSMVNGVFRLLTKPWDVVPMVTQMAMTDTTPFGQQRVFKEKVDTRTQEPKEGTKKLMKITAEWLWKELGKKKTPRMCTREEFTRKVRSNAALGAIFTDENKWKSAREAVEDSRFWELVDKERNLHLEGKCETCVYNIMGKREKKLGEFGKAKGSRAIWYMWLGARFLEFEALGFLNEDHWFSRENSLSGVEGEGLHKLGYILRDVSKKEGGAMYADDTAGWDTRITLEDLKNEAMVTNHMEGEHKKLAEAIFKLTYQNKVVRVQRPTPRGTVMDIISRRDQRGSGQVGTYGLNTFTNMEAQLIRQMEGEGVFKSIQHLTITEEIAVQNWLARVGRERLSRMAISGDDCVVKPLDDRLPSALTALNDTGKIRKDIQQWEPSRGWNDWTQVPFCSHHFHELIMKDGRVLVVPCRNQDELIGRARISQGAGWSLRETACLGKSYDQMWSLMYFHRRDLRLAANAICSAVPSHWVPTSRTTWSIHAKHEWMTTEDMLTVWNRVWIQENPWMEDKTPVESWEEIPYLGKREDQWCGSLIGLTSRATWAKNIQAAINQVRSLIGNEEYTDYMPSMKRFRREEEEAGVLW

N#C/C(=C\c1ccc(Cl)cc1Cl)c1n[nH]c(Cn2cncn2)n1
IC50 (Protein skinhead-1): > 100 µM (inactive)

CCN(c1ccccc1)S(=O)(=O)c1cccc(C(=O)Nc2ccc(C)cn2)c1
IC50 (Protein skinhead-1): > 100 µM (inactive)
CC50 [1]: 30.3 µM (active)

COc1cc(C(CCN2CCCCC2)c2c(OC)cc(OC)c3c(-c4ccccc4)cc(=O)oc23)cc(OC)c1OC (centres undefined)
IC50 [2]: > 20 µM (inactive)
CC50 (Vero [3]): > 25 µM (active)

CC1CC(C)CN(Cc2nc(N)nc(Nc3ccc4ccccc4c3)n2)C1 (centres undefined)
EC50 [4]: > 150 µM (not active)
EC50 [5]: 12.9 µM (active)
IC50 (Vero [6]): > 25 µM (active)
EC50 (Streptococcus): > 150 µM (not active)
CC50 (Vero [3]): 14.1 µM (active)
EC50 (H4): > 120 µM (not active)
EC50 [7]: > 60 µM (not active)
EC50 (Streptokinase A): > 150 µM (not active)

Nc1nc2c(s1)C(=O)CC(c1ccccc1)C2 (centres undefined)
IC50 (Leucine aminopeptidase): 58.8 µM (active)

Nc1ccc(OCCCc2c(N)nc(N)nc2N)cc1
IC50 [2]: > 20 µM (inactive)
IC50 (Large T antigen): 7.73 µM (active)

O=C(NCc1ccco1)C1CC(=O)N(c2ccc(O)cc2)C1 (centres undefined)
IC50 (Large T antigen): 19.8 µM (active)

CCn1c(SCC(=O)Nc2nc3ccc(C)cc3s2)nc2c(c1=O)SC(C)C2 (centres undefined)
CC50 [8]: > 40 µM (active)

CC1=C(C#N)C(=O)N(C2CCS(=O)(=O)C2)C(=O)/C1=C\c1ccc(C)o1 (centres undefined)
IC50 [9]: 1.6 µM (active)
IC50 (Large T antigen): 47.9 µM (active)

Cc1ccc(NC(=O)CSc2nnc[nH]2)cc1
IC50 (Leucine aminopeptidase): 34 µM (active)

O=C(Cc1nnc(O)c2ccccc12)OCc1c(Cl)cccc1Cl
IC50 (Vero [6]): 8 µM (active)

N#CC1=C(N)N(c2ccc(F)cc2)C2=C(C1c1ccc(O)cc1)S(=O)(=O)CC2 (centres undefined)
IC50 (Protein skinhead-1): > 100 µM (inactive)

O=C(CSc1ccccc1)NN1C(=O)c2ccccc2C1=O
IC50 [10]: > 47.1 µM (inactive)
IC50 (Leucine aminopeptidase): 54.4 µM (active)
EC50 [11]: > 53 µM (inactive)

Nc1nc(O)c2c(n1)N=C1C(=C(O)c3ccccc31)C2c1cccc2ccccc12 (centres undefined)
IC50 [9]: 3.73 µM (active)

COc1ccc(OC)c(C(=O)C2COC(=O)C2)c1 (centres undefined)
IC50 (Protein skinhead-1): > 100 µM (inactive)

Oc1cc2c(cc1O)[C@H]1c3ccccc3CN[C@@H]1CC2
IC50 (Large T antigen): 80 µM (active)

COc1ccc(/C=C/C(=O)c2ccc(O)cc2)cc1CN1CCOCC1
IC50 (Vero [6]): 8.49 µM (active)
CC50 (Vero [3]): > 25 µM (active)

Nc1ccc2c(c1)sc1ccccc12
IC50 (Protein skinhead-1): 29 µM (active)

O=C1Cc2ccccc2Sc2ccc(O)cc21
IC50 [2]: > 20 µM (inactive)
EC50 [11]: > 53 µM (inactive)

c1ccc2c(c1)CCN(c1nc(CN3CCOCC3)nc3sc4c(c13)CCCC4)C2
CC50 [8]: > 40 µM (active)

CN(C)C(S)=Nc1ccc(N2CCOCC2)cc1
IC50 (Large T antigen): 11 µM (active)

COc1cc(C=C(C(C)=O)C(C)=O)ccc1O
IC50 (Large T antigen): 8.18 µM (active)

O=C(/C=C\c1ccco1)c1ccc(NC(=O)c2ccco2)cc1
IC50 [9]: 2.78 µM (active)

CC(=O)/C(C#N)=C1\NC(=O)C(Cc2ccc(C)c(C)c2)S1 (centres undefined)
IC50 (Vero [6]): 5.04 µM (active)
CC50 (Vero [3]): > 25 µM (active)

CC1=NN(c2ccccc2)C(=O)/C1=C/c1ccc(-c2ccc(C)c(C(=O)O)c2)o1
IC50 (Large T antigen): 35 µM (active)

Cc1c(Nc2nc3ccccc3nc2NS(=O)(=O)c2ccccc2)c(=O)n(-c2ccccc2)n1C
IC50 (Leucine aminopeptidase): 68.1 µM (active)

CCCOC(=O)c1c(NC(=O)C2C3C=CC(C3)C2C(=O)O)sc2c1CCC(C)C2 (centres undefined)
IC50 (Genome polyprotein): 50.3 µM (active)

CC(=O)c1ccc(OCCCC(=O)n2nnc3ccccc32)cc1
IC50 (Leucine aminopeptidase): 61.9 µM (active)

O=C(c1cnn(C(=O)c2ccccc2)c1)c1ccccc1O
IC50 (Leucine aminopeptidase): 72.6 µM (active)

COc1ccc(OC)c(NC(=O)[C@H]2CC=CC[C@H]2C(=O)O)c1
IC50 (Leucine aminopeptidase): 18.5 µM (active)

O=C(CSc1nnnn1C1CCCCC1)Nc1nc2c(s1)CCCC2
CC50 [8]: > 40 µM (active)

Cc1c(/C=N/NC(=O)c2cccs2)c2ccccc2n1Cc1ccccc1Cl
IC50 (Vero [6]): > 25 µM (active)
CC50 (Vero [3]): > 25 µM (active)

CCc1cc(/C(Cc2ccccn2)=N\Nc2ccccc2)c(O)cc1O
CC50 [8]: > 40 µM (active)

CCc1ccc(/N=C\C23c4ccccc4C(c4ccccc42)C2C(=O)N(c4ccc(OC)cc4)C(=O)C23)cc1 (centres undefined)
CC50 [8]: > 40 µM (active)

COc1ccc2c3c([nH]c2c1)[C@H](CO)N(Cc1ccccc1Cl)CC31CN(C(C)=O)C1
AC50 [12]: 5.9 µM (active)

COc1ccc2c3c([nH]c2c1)[C@@H](CO)N(Cc1ccc(Cl)cc1)CC31CCN(Cc2nccs2)CC1
AC50 [12]: 4.65 µM (active)

O=C(Nc1ccc(Cl)c(Cl)c1)c1ccccc1
IC50 (Protein skinhead-1): > 100 µM (inactive)

Source: ChEMBL document CHEMBL1201862, “PubChem BioAssay data set” (2004)
